The source of these data is PMC4010551, “Targeting Staphylococcus aureus Quorum Sensing with Nonpeptidic Small Molecule Inhibitors” (Journal of Medicinal Chemistry, 2014).

In general, MIC refers to the least concentration at which growth counts as inhibited. In general, Kd refers to the equilibrium constant for the complex coming apart. The term IC50 denotes the midpoint of a concentration-inhibition curve.

Structures are written as SMILES. Converted amounts (≈) assume the structure as drawn. “Also recorded” adds a separate entry of the source. Where two headings read alike, the source gives them in different places.

The test system of one data set is Staphylococcus aureus. Description: Antibacterial activity (MIC in MH broth). The data set is classed as cell-based. The settings on record: for MIC: Staphylococcus aureus; for inhibition of bacterial growth (result in words): at 100 μM.
In a further data set the test system is AgrC-1. The data set is classed as cell-based, Staphylococcus aureus. Conditions: for competition with AIP-1 for cognate AgrC: blaZ-based agrP3 reporter.
Another data set has as its target S. aureus membranes. Further details: species or system Staphylococcus aureus. The settings on record: read-out: Kd (membrane binding).
Another data set deals with agr. Put plainly: microbe, parasite or virus in culture. The data set is classed as cell-based, Staphylococcus aureus. The settings on record: for IC50: Staphylococcus aureus, read-out: agr IC50; for difference between MIC and agr IC50: MIC relative to agr IC50; for effect of double bond in acyl chain on activity: S18 cf. 15, S19 cf. 16.
Another data set deals with P. aeruginosa. Further details: method as in PMID 21502732. Conditions: cited from earlier work.
The subject of the next data set is C. difficile. Further details: method as in PMID 19917748. Conditions: cited from earlier work.
For the next data set, the system named is S. aureus USA300. The class given is cell-based, Staphylococcus aureus. The settings on record: 4 at up to 100 μM.
Data set [1] relates to adherence of S. aureus to human nasal squamous cells. The data set is classed as cell-based, Staphylococcus aureus.
A further data set has as its system S. aureus strain Newman. Conditions: mouse, in vivo.
On the set-up of data set [2]: method as in PMID 15623555, PMID 22178671. Conditions: cited from earlier work.

As for `CCCCCCCCCC(=O)CC(=O)N[C@H]1CCOC1=O` [Compound 1, N-(3-oxododecanoyl)-L-homoserine lactone], in the data set on Staphylococcus aureus (S. aureus, MH broth, Table 1, read-out: MIC), the MIC came to 100 µM (≈ 29.7 µg/mL). For the same compound, in the data set on AgrC-1, the “competition with AIP-1 for cognate AgrC” value is “do not compete”. For the same compound, the Kd at S. aureus membranes was determined as 270 µM.
In the case of `CCCCCCCCCC(=O)CC(=O)N[C@@H]1CCOC1=O` [Compound 2], the “fold less active in agr inhibition than L-isomer 1” value in the data set with agr (D-isomer 2 versus 1) is “approximately 2 fold”.
For the compound `CCC/C(O)=C1/C(=O)N[C@@H](CCO)C1=O` [Compound 3], in the data set with Staphylococcus aureus, the MIC was more than 100 µM and the “inhibition of bacterial growth (result in words)” value was “did not inhibit growth”. Further, the half-inhibitory concentration (IC50) in the data set on agr is more than 100 µM. The “killing of P. aeruginosa” value in the data set with P. aeruginosa was “kill P. aeruginosa”. For the same compound, the “killing of C. difficile” value in the data set on C. difficile was “not C. difficile”.
In the case of `CCCCCCC/C(O)=C1/C(=O)N[C@@H](CCO)C1=O` [Compound 4], in the data set on Staphylococcus aureus, the MIC was more than 100 µM and the “inhibition of bacterial growth (result in words)” value was “did not inhibit growth”. For the same compound, the “staphylococcal growth” value in the data set on S. aureus USA300 was “without affecting staphylococcal growth; also recorded: without inhibiting the growth”.
For `CCCCCCCCC/C(O)=C1/C(=O)N[C@@H](CCO)C1=O` [Compound 5, (S)-3-Decanoyl-5-(2-hydroxyethyl)tetramic Acid], the “competition with AIP-1 for cognate AgrC” value with AgrC-1 was “do not compete”. Besides, in the data set with AgrC-1 (increasing concentrations of 5 from 0 to 100 μM), the “decrease of maximum level of activation by AIP-1” value is “over 10 fold”. For the same compound, the Kd on S. aureus membranes was found to be 222 µM. The “attachment of S. aureus to human squamous cells” value in data set [1] is listed as “substantially reduced attachment”. Moreover, in the data set with S. aureus strain Newman, the “activity in murine infection model” value was “inactive”. Further, in [2], the “ferric ion chelator (result in words)” value is on record as “ferric ion chelators”.
Regarding `CCCCCCCCCC/C(O)=C1/C(=O)N[C@@H](CCO)C1=O` [Compound 6], in the data set on agr, the “difference between MIC and agr IC50” value is given as 5 fold.
As for `CCCCCCCCCCC/C(O)=C1/C(=O)N[C@@H](CCO)C1=O` [Compound 7, (S)-3-Dodecanoyl-5-(2-hydroxyethyl)tetramic Acid], the Kd at S. aureus membranes came out at 23 µM.
As for `CCCCCCCCCCCCC/C(O)=C1/C(=O)N[C@@H](CCO)C1=O` [Compound 8], the “fold lower MIC” value with Staphylococcus aureus (versus 5 (MIC 100 μM)) is 8 fold. Also, in the data set with agr, the “difference between MIC and agr IC50” value is “little different”. Besides, at S. aureus membranes, the dissociation constant Kd is 2 µM.
`CCCCCCCCC/C(O)=C1/C(=O)N[C@H](CCO)C1=O` [Compound 9] showed an MIC against Staphylococcus aureus of more than 100 µM. In the data set on agr ((R)-9 versus (S)-5), the “fold improvement of agr inhibitory activity” value is listed as 1.5 fold.
Consider `O=C1N[C@@H](CCO)C(=O)/C1=C(/O)CCCC1CCCCC1` [Compound 10], for which the MIC against Staphylococcus aureus was more than 100 µM. The IC50 in the data set with agr was more than 100 µM.
`O=C1N[C@@H](CCO)C(=O)/C1=C(/O)Cc1ccc([N+](=O)[O-])cc1` [Compound 11] came in with an MIC with Staphylococcus aureus of more than 100 µM. For the same compound, the concentration for half-maximal inhibition (IC50) in the data set on agr is more than 100 µM.
In the case of `CCCCCCCCC/C(O)=C1/C(=O)N[C@@H](C)C1=O` [Compound 12, (S)-3-Decanoyl-5-methyltetramic acid], in the data set with agr, the “inhibited agr (result in words)” value is listed as “enhanced agr inhibitory activity”.
Still for that read-out and setting: in the case of `CCCCCCCCC/C(O)=C1\C(=O)CNC1=O` [Compound 13, 3-decanoyltetramic acid] it was “enhanced agr inhibitory activity”.
`CCCCCC(=O)C1=C(O)COC1=O` [Compound 14] registered an MIC against Staphylococcus aureus of more than 100 µM.
For the compound `CCCCCCCCCC(=O)C1=C(O)COC1=O` [Compound 15], at S. aureus membranes, the equilibrium dissociation constant (Kd) came out at 258 µM.
For the compound `CCCCCCCCCCCC(=O)C1=C(O)COC1=O` [Compound 16, 3-Dodecanoyltetronic Acid], in the data set on AgrC-1 (16 versus 1 and 5), the “fold more potent in preventing AIP-mediated activation of AgrC” value is reported as “at least 5 fold”. Also, the “competition with AIP-1 for cognate AgrC” value in the data set with AgrC-1 was “do not compete”. Besides, the Kd on S. aureus membranes worked out at 72 µM.
For the compound `CCCCCCCCCCCCCCCC(=O)C1=C(O)COC1=O` [Compound 18], the minimal inhibitory concentration (MIC) with Staphylococcus aureus was more than 100 µM.
Consider `CCCCCCCCCC(=O)CC(=O)N[C@@H](CCO)C(=O)O` [Compound S1, N-(3-oxododecanoyl)-L-homoserine], for which the minimum inhibitory concentration (MIC) in the data set on Staphylococcus aureus is more than 100 µM. In addition, in the data set with agr, the “inhibited agr (result in words)” value is recorded as “neither” and the half-maximal inhibitory concentration (IC50) was more than 100 µM.
`CCCCCCCCCC(=O)CC(N)=O` [Compound S2, 3-oxododecanamide] returned a minimal inhibitory concentration (MIC) in the data set with Staphylococcus aureus of more than 100 µM. In the data set on agr, the “inhibited agr (result in words)” value is recorded as “neither” and the half-inhibitory concentration (IC50) is more than 100 µM.
Consider `CCCCCCCCCC(=O)CC(=O)Nc1nccs1` [Compound S3], for which the minimum inhibitory concentration (MIC) in the data set on Staphylococcus aureus was more than 100 µM. Further, the IC50 in the data set on agr is more than 100 µM.
Compound `CCCCCCCCCC(=O)CC(=O)N[C@H]1CCSC1=O` [Compound S4] yielded an MIC with Staphylococcus aureus of more than 100 µM. Also, the half-maximal inhibitory concentration (IC50) with agr is more than 100 µM.
For the compound `CCCCCCCCCC(=O)CC(=O)N[C@H]1CCNC1=O` [Compound S5], the minimum inhibitory concentration (MIC) in the data set with Staphylococcus aureus is more than 100 µM. Also, in the data set with agr, the IC50 is more than 100 µM.
With `CCCCCCCCCC(=O)CC(=O)N[C@H]1CCC(=O)NC1=O` [Compound S6], the MIC against Staphylococcus aureus is more than 100 µM. Besides, the IC50 in the data set with agr is more than 100 µM.
As to `CCCCCCCCCC(=O)CC(=O)N[C@H]1CC(=O)NC1=O` [Compound S7], the minimal inhibitory concentration (MIC) in the data set on Staphylococcus aureus was more than 100 µM. Moreover, the half-maximal inhibitory concentration (IC50) with agr is more than 100 µM.
In the data set with Staphylococcus aureus, `CCCCCCCCCCCC(=O)N[C@H]1CCOC1=O` [Compound S8] showed a minimal inhibitory concentration (MIC) of more than 100 µM. Besides, in the data set with agr, the IC50 was more than 100 µM.
As to `CCCCCCCCCC(O)CC(=O)N[C@H]1CCOC1=O` (some centres unmarked) [Compound S9], the MIC in the data set on Staphylococcus aureus is more than 100 µM. Besides, in the data set on agr, the IC50 was more than 100 µM.
Regarding `CCCCCCCCNC(=O)CC(=O)N[C@H]1CCOC1=O` [Compound S10], the minimum inhibitory concentration (MIC) in the data set on Staphylococcus aureus is more than 100 µM. Further, the IC50 in the data set on agr is more than 100 µM.
`CCCCCCCCN(C)C(=O)CC(=O)N[C@H]1CCOC1=O` [Compound S11] gave a minimal inhibitory concentration (MIC) in the data set with Staphylococcus aureus of more than 100 µM. In the data set on agr, the half-maximal inhibitory concentration (IC50) is more than 100 µM.
For the compound `CCCCCCCCOC(=O)CC(=O)N[C@H]1CCOC1=O` [Compound S12], in the data set with Staphylococcus aureus, the MIC was more than 100 µM. The concentration for half-maximal inhibition (IC50) with agr was more than 100 µM.
For `CCCCCCCCCC(=O)CC(=O)O[C@H]1CCOC1=O` [Compound S13], the minimum inhibitory concentration (MIC) with Staphylococcus aureus (S. aureus, Table S1, read-out: MIC) is more than 100 µM. In addition, the 50% inhibitory concentration (IC50) in the data set with agr was more than 100 µM.
`CCCCC/C=C/CCC(=O)CC(=O)N[C@H]1CCOC1=O` [Compound S14] registered a minimal inhibitory concentration (MIC) with Staphylococcus aureus of more than 100 µM. Moreover, in the data set with agr, the concentration for half-maximal inhibition (IC50) is more than 100 µM.
On to `O=C(CCCc1ccccc1)CC(=O)N[C@H]1CCOC1=O` [Compound S15], for which the MIC in the data set with Staphylococcus aureus was more than 100 µM. Moreover, in the data set on agr, the IC50 is more than 100 µM.
Take `O=C(CCCC1CCCCC1)CC(=O)N[C@H]1CCOC1=O` [Compound S16]: in the data set on Staphylococcus aureus, the MIC was more than 100 µM. Further, the half-inhibitory concentration (IC50) in the data set with agr is more than 100 µM.
Compound `CC(C)CCCCCCC(=O)C1=C(O)COC1=O` [Compound S17] had an MIC against Staphylococcus aureus of more than 100 µM. Also, in the data set with agr, the IC50 is more than 100 µM.
With `CCCCC/C=C/CCC(=O)C1=C(O)COC1=O` [Compound S18], the “effect of double bond in acyl chain on activity” value in the data set on agr is reported as “little effect on activity”.
The compound `CCCCCC/C=C\CCCC(=O)C1=C(O)COC1=O` [Compound S19] gave a minimal inhibitory concentration (MIC) in the data set on Staphylococcus aureus of more than 100 µM. Also, in the data set on agr, the “effect of double bond in acyl chain on activity” value is “almost abolished”.
Turning to `O=C(Cc1ccc([N+](=O)[O-])cc1)C1=C(O)COC1=O` [Compound S20], the MIC against Staphylococcus aureus was more than 100 µM. Besides, the IC50 in the data set on agr was more than 100 µM.
Take `O=C(Cc1ccc(Br)cc1)C1=C(O)COC1=O` [Compound S21]: the MIC against Staphylococcus aureus was more than 100 µM. Also, the IC50 in the data set with agr was more than 100 µM.
In the data set with Staphylococcus aureus, `O=C(COc1ccc(Br)cc1)C1=C(O)COC1=O` [Compound S22] registered an MIC of more than 100 µM. Further, in the data set on agr, the IC50 is more than 100 µM.
On to `CCCC(=O)CC(=O)C1=C(O)COC1=O` [Compound S23], for which the MIC with Staphylococcus aureus is more than 100 µM. Moreover, the IC50 in the data set with agr is more than 100 µM.
The compound `CCCCCCCCCC(=O)CC(=O)C1=C(O)COC1=O` [Compound S24] came in with a minimal inhibitory concentration (MIC) in the data set with Staphylococcus aureus of more than 100 µM. Also, the 50% inhibitory concentration (IC50) in the data set on agr is more than 100 µM.
